Measured values published in patent US11793845B2, “Composition for ameliorating peripheral sensory neuropathy” (KINKI UNIVERSITY, priority 2016, dated 2023).

Experiments:
[1] = tested on: Peripheral Sensory Neuropathy Induced by Bortezomib in Mice; assay: von Frey test, bortezomib-induced peripheral sensory neuropathy; format: in vivo; conditions: duloxetine 30 mg/kg daily
Description: The mice in the three groups in the above (1) were put in a cage and a filament having a strength of 0.16 g was pressed on the plantar surface of the leg to measure the number of times (a score) of avoidance response.
(§1) In the present test, the mice were divided into three groups by a difference in test objects. As in Example 1, male Balb/c mice of 6 to 7 weeks old were used. The mice were divided into a total of three groups, a control group, a bortezomib administration group, and a bortezomib and Lentinus edodes mycelium extract administration group (bortezomib+Lentinus edodes mycelium extract administration group).
(§2) Bortezomib was administered to each mouse once a day at a dose of 1 mg/kg. Further, the Lentinus edodes mycelium extract was administered to each mouse once a day at a dose of 2 g/kg.
Further, the number of times of administration was set to once a week (on Day 0, Day 7, and Day 14) for bortezomib and daily (from Day 0 to Day 15) for the Lentinus edodes mycelium extract in both the von Frey test and the cold plate test below.
Evaluation was performed in the same manner as in the test with oxaliplatin in Example 1. Referring to FIG. 7, the horizontal axis indicates an elapsed time after administration (days) and the vertical axis indicates the avoidance response (scores). Open circles with a solid line represent the control group. Filled circles with a solid line represent the group in which only bortezomib was administered. Open squares with a dash line represent the group in which bortezomib and the Lentinus edodes mycelium extract were administered at the same time (bortezomib+Lentinus edodes mycelium extract administration group). When the difference with the control group was determined to be significant using a significance level of 5%, the data were marked by “*”.
(§3) In the present test, the mice were divided into six groups by a difference in test objects. As in Example 1, male Balb/c mice of 6 to 7 weeks old were used. […]

[2] = tested on: Peripheral Sensory Neuropathy Induced by Bortezomib in Mice; assay: cold plate test, bortezomib-induced peripheral sensory neuropathy; format: in vivo; conditions: duloxetine 30 mg/kg daily
Protocol: The effect of the Lentinus edodes mycelium extract on the paresthesia to cold stimulation was tested by performing the cold plate test. The mice in the three groups in the above (1) were put on a cold plate set to 10° C. and a response time for avoidance (a latency) was measured. The shorter latency means that the mouse avoids the cold stimulation of the cold plate more.
as §1, §2
Evaluation was performed in the same manner as in the test with oxaliplatin in Example 1. Referring to FIG. 8, the horizontal axis indicates the elapsed time after administration (days) and the vertical axis indicates the avoidance response time (seconds). Open circles with a solid line represent the control group. Filled circles with a solid line represent the group in which only bortezomib was administered. Open squares with a dash line represent the group in which bortezomib and the Lentinus edodes mycelium extract were administered at the same time (bortezomib+Lentinus edodes mycelium extract administration groups). When the difference with the control group was determined to be significant using a significance level of 5%, the data were marked by “*”.
as §3

`CNCC[C@H](Oc1cccc2ccccc12)c1cccs1` [duloxetine] was tested, and the “avoidance score compared with bortezomib administration group, von Frey test” value ([1]; 3-day delayed after bortezomib) was “almost the same score as that in the bortezomib administration group”, the “avoidance score, von Frey test” value ([1]; 6-day delayed after bortezomib) was “same tendency as that in the duloxetine 3-day delayed administration group” and the “latency compared with bortezomib administration group, cold plate test” value ([2]; 3-day delayed after bortezomib) was “almost the same as that in the bortezomib administration group”. For the same molecule, the “latency, cold plate test” value ([2]; 6-day delayed after bortezomib) was “same tendency as that in the duloxetine 3-day delayed administration group”.
